In patent US20230295157A1, “3-(1H-IMIDAZOL-2-YL)-2,3,8,8A-TETRAHYDROINDOLIZIN-5(1H)-ONE DERIVATIVES USEFUL AS FACTOR XIA INHIBITORS” (JANSSEN PHARMACEUTICA NV, priority 2020, published 2023):
Like-named read-outs stand apart in the source and are kept apart here.

Key:
Factor XIa = Factor XIa (Homo sapiens (Human), UniProt P03951); assay: Factor XIa inhibition assay (FLINT) utilizing a fluorophore-quencher pair peptide substrate; type: biochemical; conditions: 30 min preincubation, read-out: FXIa Kin Inh IC50
Chain of Factor XIa (P03951 388-625): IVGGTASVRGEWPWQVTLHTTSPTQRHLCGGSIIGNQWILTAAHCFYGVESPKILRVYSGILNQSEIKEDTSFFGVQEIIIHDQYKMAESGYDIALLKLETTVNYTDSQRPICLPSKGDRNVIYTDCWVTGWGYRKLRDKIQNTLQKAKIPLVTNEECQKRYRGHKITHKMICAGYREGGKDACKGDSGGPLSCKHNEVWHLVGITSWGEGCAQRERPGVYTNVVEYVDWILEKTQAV
Chain of Factor XIa (P03951 19-387 partner): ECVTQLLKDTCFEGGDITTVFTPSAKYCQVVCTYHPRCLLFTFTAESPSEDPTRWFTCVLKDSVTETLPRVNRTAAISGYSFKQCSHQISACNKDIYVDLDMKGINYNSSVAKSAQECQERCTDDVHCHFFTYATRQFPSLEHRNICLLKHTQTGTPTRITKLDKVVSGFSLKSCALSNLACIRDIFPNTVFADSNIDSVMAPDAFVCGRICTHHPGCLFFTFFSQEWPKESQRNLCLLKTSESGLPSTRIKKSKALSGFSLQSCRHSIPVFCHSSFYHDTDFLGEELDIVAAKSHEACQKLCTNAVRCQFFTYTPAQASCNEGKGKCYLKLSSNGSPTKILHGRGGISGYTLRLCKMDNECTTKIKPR
Summary of the method: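 FXIa ([…]) preincubated 30 min with compound (11-point 3-fold dilution, top 100 nM, 2% DMSO), then 15 μM quenched FXI Arg146-based peptide added; Tris pH 7.5, CaCl2, BSA, CHAPS. Fluorescence 485/520 nm read kinetically every 5 min over 30 min at RT; IC50 by 4-parameter fit.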

human plasma kallikrein = human plasma kallikrein (Homo sapiens (Human), UniProt P03952); assay: Kallikrein inhibition assay (FLINT) utilizing a quenched AMC peptide substrate; type: biochemical; conditions: 30 min preincubation, read-out: Kallikrein Kin Inh IC50
Chain of human plasma kallikrein (P03952 391-638): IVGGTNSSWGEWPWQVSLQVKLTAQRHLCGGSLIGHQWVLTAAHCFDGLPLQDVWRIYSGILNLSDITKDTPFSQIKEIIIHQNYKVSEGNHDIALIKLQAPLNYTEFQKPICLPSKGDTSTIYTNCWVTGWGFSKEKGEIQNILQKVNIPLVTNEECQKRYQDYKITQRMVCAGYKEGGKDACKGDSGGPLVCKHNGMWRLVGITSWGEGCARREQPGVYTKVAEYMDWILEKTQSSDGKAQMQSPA
Chain of human plasma kallikrein (P03952 20-390 partner): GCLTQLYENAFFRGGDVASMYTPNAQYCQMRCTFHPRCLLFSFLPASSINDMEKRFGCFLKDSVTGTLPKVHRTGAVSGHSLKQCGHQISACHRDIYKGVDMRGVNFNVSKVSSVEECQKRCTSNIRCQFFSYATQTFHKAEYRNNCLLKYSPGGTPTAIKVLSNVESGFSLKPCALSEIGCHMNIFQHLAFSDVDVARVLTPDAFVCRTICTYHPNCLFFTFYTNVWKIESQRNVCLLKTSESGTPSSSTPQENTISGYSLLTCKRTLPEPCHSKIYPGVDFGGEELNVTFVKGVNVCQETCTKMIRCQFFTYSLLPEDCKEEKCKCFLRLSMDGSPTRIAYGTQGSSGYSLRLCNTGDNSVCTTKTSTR
Summary of the method: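 Enzyme (2 nM final) pre-incubated 30 min at room temperature with compound (11-point, 3-fold, top 1 μM, 2% DMSO), then 50 μM Z-Gly-Pro-Arg-AMC added in Tris pH 7.5 buffer. Kinetic fluorescence 340/440 nm every 5 min over 30 min; IC50 from 4-parameter logistic fit.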

[1] = kinetic reads over 30 min, 5Fam-[…]-K5Tamra substrate 15 μM
[2] = kinetic reads over 30 min, Z-Gly-Pro-Arg-AMC substrate 50 μM
[3] = kinetic reads over 30 min, 5Fam-KLTRAETV-K5Tamra substrate 15 μM

Cn1c(=O)[nH]c2ccc(-c3cnc([C@@H]4CC[C@@H]5CC(c6c(-n7cnnn7)ccc(Cl)c6F)=CC(=O)N54)[nH]3)cc21 (relative stereo) [Example 300, 6-(2-((3S,8aR*)-7-(3-Chloro-2-fluoro-6-(1H-tetrazol-1-yl)phenyl)-5-oxo-1,2,3,5,8,8a-hexahydroindolizin-3-yl)-1H-imidazol-5-yl)-1-methyl-1H-benzo[d]imidazol-2(3H)-one]
IC50 (Factor XIa; [1]): 0.0014 µM
IC50 (human plasma kallikrein; [2]): 0.002 µM

COC(=O)Nc1ccccc1-c1cnc([C@@H]2CC[C@@H]3CC(c4c(-n5cnnn5)ccc(Cl)c4F)=CC(=O)N32)[nH]1 (relative stereo) [Example 301, Methyl 2-(2-((3S,8aR*)-7-(3-chloro-2-fluoro-6-(1H-tetrazol-1-yl)phenyl)-5-oxo-1,2,3,5,8,8a-hexahydroindolizin-3-yl)-1H-imidazol-4-yl)phenylcarbamate]
IC50 (Factor XIa; [1]): 0.0031 µM
IC50 (human plasma kallikrein; [2]): 0.0177 µM

COC(=O)Nc1ccccc1-c1cnc([C@@H]2CC[C@H]3CC(c4c(-n5cnnn5)ccc(Cl)c4F)=CC(=O)N32)[nH]1 (relative stereo) [Example 302, Methyl 2-(24(3S,8aS*)-7-(3-chloro-2-fluoro-6-(1H-tetrazol-1-yl)phenyl)-5-oxo-1,2,3,5,8,8a-hexahydroindolizin-3-yl)-1H-imidazol-4-yl)phenylcarbamate]
IC50 (Factor XIa; [1]): 0.0104 µM
IC50 (human plasma kallikrein; [2]): 0.0291 µM

Cn1c(=O)[nH]c2cc(-c3cnc([C@@H]4CC[C@@H]5CC(c6c(-n7cnnn7)ccc(Cl)c6F)=CC(=O)N54)[nH]3)ccc21 (relative stereo) [Example 303, 5-(24(3S,8aR*)-7-(3-Chloro-2-fluoro-6-(1H-tetrazol-1-yl)phenyl)-5-oxo-1,2,3,5,8,8a-hexahydroindolizin-3-yl)-1H-imidazol-5-yl)-1-methyl-1H-benzo[d]imidazol-2(3H)-one]
IC50 (Factor XIa; [1]): 0.0009 µM
IC50 (human plasma kallikrein; [2]): 0.0044 µM

Cn1cc(-c2ccccc2NC(=O)C2CC2)nc1[C@@H]1CC[C@H]2CC(c3c(-n4cnnn4)ccc(Cl)c3F)=CC(=O)N21 (relative stereo) [Example 304, N-(2-(2-((3S,8aS*)-7-(3-Chloro-2-fluoro-6-(1H-tetrazol-1-yl)phenyl)-5-oxo-1,2,3,5,8,8a-hexahydroindolizin-3-yl)-1-methyl-1H-imidazol-4-yl)phenyl)cyclopropanecarboxamide]
IC50 (Factor XIa; [1]): > 0.1 µM
IC50 (human plasma kallikrein; [2]): 0.323 µM

CC(C)C(=O)Nc1ccccc1-c1cnc([C@@H]2CC[C@@H]3CC(c4c(-n5cnnn5)ccc(Cl)c4F)=CC(=O)N32)[nH]1 (relative stereo) [Example 305, N-(2-(2-((3S,8aR*)-7-(3-Chloro-2-fluoro-6-(1H-tetrazol-1-yl)phenyl)-5-oxo-1,2,3,5,8,8a-hexahydroindolizin-3-yl)-1H-imidazol-4-yl)phenyl)isobutyramide]
IC50 (Factor XIa; [1]): 0.0007 µM
IC50 (human plasma kallikrein; [2]): 0.0017 µM

CC(=O)Nc1ccccc1-c1cnc([C@@H]2CC[C@H]3CC(c4c(-n5cnnn5)ccc(Cl)c4F)=CC(=O)N32)[nH]1 (relative stereo) [Example 306, N-(2-(24(3S,8aS*)-7-(3-Chloro-2-fluoro-6-(1H-tetrazol-1-yl)phenyl)-5-oxo-1,2,3,5,8,8a-hexahydroindolizin-3-yl)-1H-imidazol-4-yl)phenyl)acetamide]
IC50 (Factor XIa; [1]): 0.0005 µM
IC50 (human plasma kallikrein; [2]): 0.0118 µM

Nc1ccccc1-c1cnc([C@@H]2CC[C@H]3CC(c4c(-n5cnnn5)ccc(Cl)c4F)=CC(=O)N32)[nH]1 (relative stereo) [Example 308, (3S,8aS*)-3-(4-(2-Aminophenyl)-1H-imidazol-2-yl)-7-(3-chloro-2-fluoro-6-(1H-tetrazol-1-yl)phenyl)-2,3,8,8a-tetrahydroindolizin-5(1H)-one]
IC50 (Factor XIa; [1]): 0.0927 µM
IC50 (human plasma kallikrein; [2]): > 0.1 µM

Nc1ccccc1-c1cnc([C@@H]2CC[C@@H]3CC(c4c(-n5cnnn5)ccc(Cl)c4F)=CC(=O)N32)[nH]1 (relative stereo) [Example 310, (3S,8aR*)-3-(4-(2-Aminophenyl)-1H-imidazol-2-yl)-7-(3-chloro-2-fluoro-6-(1H-tetrazol-1-yl)phenyl)-2,3,8,8a-tetrahydroindolizin-5(1H)-one]
IC50 (Factor XIa; [1]): 0.0336 µM
IC50 (human plasma kallikrein; [2]): > 0.1 µM

COC(=O)Nc1ccc(-c2cnc([C@@H]3CC[C@H]4CC(c5c(F)ccc(Cl)c5OC(F)F)=CC(=O)N43)[nH]2)cc1 (relative stereo) [Example 319, Methyl (4-(2-((3S,8aS)-7-(3-Chloro-2-(difluoromethoxy)-6-fluorophenyl)-5-oxo-1,2,3,5,8,8a-hexahydroindolizin-3-yl)-1H-imidazol-5-yl)phenyl)carbamate]
IC50 (Factor XIa; μM, kinetic reads): 2.2 µM
IC50 (human plasma kallikrein; [2]): 0.455 µM

COC(=O)Nc1ccc(-c2cnc([C@@H]3CC[C@H]4CC(c5c(OC(F)F)ccc(Cl)c5F)=CC(=O)N43)[nH]2)cc1 (relative stereo) [Example 320, Methyl (4-(2-((3S,8aS)-7-(3-Chloro-6-(difluoromethoxy)-2-fluorophenyl)-5-oxo-1,2,3,5,8,8a-hexahydroindolizin-3-yl)-1H-imidazol-5-yl)phenyl)carbamate]
IC50 (Factor XIa; [1]): 0.0235 µM
IC50 (human plasma kallikrein; [2]): 0.0038 µM

O=C1C=C(c2c(-n3cnnn3)ccc(Cl)c2F)C[C@@H]2CC[C@@H](c3ncc(-c4cc[n+]([O-])cc4)[nH]3)N12 (relative stereo) [Example 321, 4-(2-((3S,8aS)-7-(3-Chloro-2-fluoro-6-(1H-tetrazol-1-yl)phenyl)-5-oxo-1,2,3,5,8,8a-hexahydroindolizin-3-yl)-1H-imidazol-5-yl)pyridine 1-oxide]
IC50 (Factor XIa; [1]): 0.0787 µM
IC50 (human plasma kallikrein; [2]): 0.342 µM

COC(=O)Nc1ccc(-c2cnc([C@@H]3CC[C@H]4CC(c5c(-n6cnnn6)ccc(Cl)c5F)=CC(=O)N43)[nH]2)nc1 (relative stereo) [Example 322, Methyl (6-(2-((3S,8aS)-7-(3-Chloro-2-fluoro-6-(1H-tetrazol-1-yl)phenyl)-5-oxo-1,2,3,5,8,8a-hexahydroindolizin-3-yl)-1H-imidazol-5-yl)pyridin-3-yl)carbamate]
IC50 (Factor XIa; [1]): 0.0008 µM
IC50 (human plasma kallikrein; [2]): 0.0103 µM

CC1(C)C[C@@H](c2ncc(-c3ccc(N)nc3Cl)[nH]2)N2C(=O)C=C(c3c(-n4cnnn4)ccc(Cl)c3F)C[C@@H]21 (relative stereo) [Example 335, (3S,8aR)-3-(5-(6-Amino-2-chloropyridin-3-yl)-1H-imidazol-2-yl)-7-(3-chloro-2-fluoro-6-(1H-tetrazol-1-yl)phenyl)-1,1-dimethyl-2,3,8,8a-tetrahydroindolizin-5(1H)-one]
IC50 (Factor XIa; [1]): 0.0057 µM
IC50 (human plasma kallikrein; [2]): 0.0227 µM

CC1(C)C[C@@H](c2ncc(-c3ccc(N)nc3F)[nH]2)N2C(=O)C=C(c3c(-n4cnnn4)ccc(Cl)c3F)C[C@@H]21 (relative stereo) [Example 336, (3S,8aR)-3-(5-(6-Amino-2-fluoropyridin-3-yl)-1H-imidazol-2-yl)-7-(3-chloro-2-fluoro-6-(1H-tetrazol-1-yl)phenyl)-1,1-dimethyl-2,3,8,8a-tetrahydroindolizin-5(1H)-one]
IC50 (Factor XIa; [1]): 0.0093 µM
IC50 (human plasma kallikrein; [2]): 0.0479 µM

CC1(C)C[C@@H](c2ncc(-c3ccc(N)nc3F)[nH]2)N2C(=O)C=C(c3c(-n4cnnn4)ccc(Cl)c3F)C[C@H]21 (relative stereo) [Example 337, (3S,8aS)-3-(5-(6-Amino-2-fluoropyridin-3-yl)-1H-imidazol-2-yl)-7-(3-chloro-2-fluoro-6-(1H-tetrazol-1-yl)phenyl)-1,1-dimethyl-2,3,8,8a-tetrahydroindolizin-5(1H)-one]
IC50 (Factor XIa; [1]): 0.0015 µM
IC50 (human plasma kallikrein; [2]): 0.0127 µM

CC1(C)C[C@@H](c2ncc(-c3ccc(N)nc3Cl)[nH]2)N2C(=O)C=C(c3c(-n4cnnn4)ccc(Cl)c3F)C[C@H]21 (relative stereo) [Example 338, (3S,8aS)-3-(5-(6-Amino-2-chloropyridin-3-yl)-1H-imidazol-2-yl)-7-(3-chloro-2-fluoro-6-(1H-tetrazol-1-yl)phenyl)-1,1-dimethyl-2,3,8,8a-tetrahydroindolizin-5(1H)-one]
IC50 (Factor XIa; [1]): 0.001 µM
IC50 (human plasma kallikrein; [2]): 0.0084 µM

C[C@H]1C[C@@H](c2ncc(-c3ccc(N)nc3F)[nH]2)N2C(=O)C=C(c3c(-n4cnnn4)ccc(Cl)c3F)C[C@H]12 (relative stereo) [Example 344, (1*S,3S,8a*R)-3-(5-(6-Amino-2-fluoropyridin-3-yl)-1H-imidazol-2-yl)-7-(3-chloro-2-fluoro-6-(1H-tetrazol-1-yl)phenyl)-1-methyl-2,3,8,8a-tetrahydroindolizin-5(1H)-one]
IC50 (Factor XIa; [1]): 0.202 µM
IC50 (human plasma kallikrein; μM, kinetic reads): 1.3 µM

O=C1C=C(c2c(-n3cnnn3)ccc(Cl)c2F)CC2CC[C@@H](c3nc(-c4ccnc(OCCO)c4)c[nH]3)N12 (single isomer, unassigned) [Example 9]
IC50 (Factor XIa; [3]): 0.0021 µM
IC50 (human plasma kallikrein; [2]): 0.0085 µM

O=C1C=C(c2c(-n3cnnn3)ccc(Cl)c2F)C[C@H]2CC[C@@H](c3ncc(-c4c[nH]c5cnccc45)[nH]3)N12 (single isomer, unassigned) [Example 19]
IC50 (Factor XIa; [3]): 0.0024 µM
IC50 (human plasma kallikrein; [2]): 0.0074 µM

CC(O)COc1nccc(-c2cnc([C@@H]3CC[C@@H]4CC(c5c(-n6cnnn6)ccc(Cl)c5F)=CC(=O)N43)[nH]2)c1F (single isomer, unassigned) [Example 28]
IC50 (Factor XIa; [3]): 0.0013 µM
IC50 (human plasma kallikrein; [2]): 0.0094 µM

CC(O)COc1nccc(-c2cnc([C@@H]3CC[C@H]4CC(c5c(-n6cnnn6)ccc(Cl)c5F)=CC(=O)N43)[nH]2)c1F (single isomer, unassigned) [Example 29]
IC50 (Factor XIa; [3]): 0.0579 µM
IC50 (human plasma kallikrein; [2]): 0.307 µM
